Experimental data reported in US5744600A, “Phosphonomethoxy carbocyclic nucleosides and nucleotides” (Institute of Organic Chemistry and Biochemistry of the …, priority 1994, dated 1998).
Values after ≈ are worked out from the molar mass of the structure shown. Read-outs that look alike come from different tables or passages of the source.

Tests used:
[1] = tested on: herpes simplex virus Type 1 (HSV-1) [BW^s strain]; assay: HSV-1 plaque reduction assay in vero cells; format: cell-based; conditions: Human alphaherpesvirus 1, Table II, racemic series, 48 hour incubation, read-out: HSV-1 in vitro antiviral activity (IC50)
Protocol: (§1) The antiviral activity of compounds of the invention, against both herpes viruses and human immunodeficiency virus (HIV), are presented in Table II. In Table II, the numbers in parenthesis in the columns reporting HIV activity represent the TD50, that is, the dosage at which toxic effects are observed in 50% of the population of cells tested.
(§2) The compounds were evaluated for antiviral activity in vitro by a standard plaque reduction assay. Experiments were conducted with vero cells (African Green Monkey Kidney cells) infected with herpes simplex virus Type 1 (HSV-1) [BW^s strain, C. D. Sibrack, et al., Infect. Disc., 1982, 146, 673] and herpes simplex virus Type 2 (HSV-2) [G strain, obtained from American Tissue Culture Collection, Rockville, Md.] and with MRC-5 cells (human embryonic lung (diploid) cells) infected with human cytomegalovirus (HCMV) [AD169 strain, obtained from American Tissue Culture Collection, Rockville, Md].
(§3) Briefly, confluent cell monolayers in 24-well plates were infected with 3-50 plaque-forming units of virus in 100 μl of phosphate-buffered saline. After a 1 hour adsorption period, residual inoculum was replaced with 1 mL of the appropriate dilution of the test compound which had been freshly prepared in Eagle's minimal essential medium ("EMEM") containing 10% fetal bovine serum. After a 48 hour incubation period at 37° C. in a 5% CO2 atmosphere, cell monolayers were fixed and stained with Carbol fuchsin and plaques were counted. The antiviral potency of the compound was determined by IC50, the inhibitory concentration necessary to reduce the number of plaques by 50% of those in the virus control cultures.

[2] = tested on: herpes simplex virus Type 2 (HSV-2) [G strain]; assay: HSV-2 plaque reduction assay in vero cells; format: cell-based; conditions: Human alphaherpesvirus 2, Table II, racemic series, 48 hour incubation, read-out: HSV-2 in vitro antiviral activity (IC50)
Protocol: as §1, §2, §3

[3] = tested on: human cytomegalovirus (HCMV) [AD169 strain]; assay: HCMV plaque reduction assay in MRC-5 cells; format: cell-based; conditions: Human betaherpesvirus 5, AD169, MRC5, Table II, racemic series, 48 hour incubation, read-out: HCMV in vitro antiviral activity (IC50)
Protocol: as §2, §3

[4] = tested on: Murine leukemia virus (MuLV); assay: MuLV UV-XC plaque assay in SC-1 cells; format: cell-based; conditions: SC1, Table II, racemic series, read-out: MuLV in vitro antiviral activity (IC50)
Protocol: The compounds were evaluated for antiviral activity against Murine leukemia virus (MuLV) strains using the UV-XC plaque assay (Rowe, et. al., Virology, 42:1136, 1970).
The MuLV strains were grown in fetal mouse cells, (SC-1) and used for antiviral tests using the UV-XC plaque assay. Briefly, SC-1 cells are grown as monolayers in 4-well tissue culture plates and inoculated with approximately 50-100 plaque forming units of MuLV in 0.5 ml of 5% EMEM containing 20 μg/ml DEAE/Dextran. After 1 hr. adsorption, the inoculum is removed and 5 ml of 5% EMEM containing three-fold dilutions of the appropriate drug are added. Five days later, the cultures are UV-irradiated with an ultraviolet lamp and rat XC sarcoma cells are added to the cultures. Three to four days after UV-irradiation, the cell cultures are stained with Giemsa stain and the plaques are counted. Antiviral activity is expressed in terms of the reduction in the mean number of UV-XC plaques counted in the drug treated, virus-infected cultures compared with mean number of plaques counted in untreated, virus-infected control cultures. IC50 values are calculated by determining the concentration of compound necessary to reduce the number of plaques by 50% compared to those in the virus control cultures.

[5] = tested on: HSV-1 (herpes simplex virus type 1, strain Schooler); assay: HSV-1 plaque inhibition assay in WI-38 cells; format: cell-based; conditions: Human alphaherpesvirus 1, 96 h, 4 days
Protocol: (§4) Additional assays were performed in cell culture systems to determine the concentrations of compounds that are effective in preventing several kinds of viral infections. In Tables III and IV, the anti-HIV results using CEM cells were obtained using the same protocol described earlier. Figures in parenthesis represent the observed TD50 in the HIV screens indicated. Abbreviations:
(§5) HSV-1 (herpes simplex virus type 1, strain Schooler), HSV-2 (herpes simplex virus type 2, strain 186), VZV (varicella zoster virus, strain ELLEN), HCMV (human cytomegalovirus, strain AD 169 HIV (human immunodeficiency virus, strain HTLV-IIIB).
(§6) Virus was adsorbed to WI-38 cell culture monolayers in 6 well culture plates (Costar, Cambridge, Mass.) for 1 hour prior to addition of maintenance medium containing duplicate dilutions of the test compound. Inhibition of plaque development was evaluated on fixed and stained monolayers after 4 days incubation at 37° C. for HSV-1 and HSV-2, and after 5-7 days incubation at 37° C. for HCMV and VZV. ID50 values were determined from the drug concentration which conferred at least a 50% plaque reduction compared to virus controls.

[6] = tested on: HSV-2 (herpes simplex virus type 2, strain 186); assay: HSV-2 plaque inhibition assay in WI-38 cells; format: cell-based; conditions: Human alphaherpesvirus 2, 96 h, 4 days
Protocol: as §4, §5, §6

[7] = tested on: HCMV (human cytomegalovirus, strain AD 169); assay: HCMV plaque inhibition assay in WI-38 cells; format: cell-based; conditions: 5-7 days
Protocol: as §4, §5, §6

[8] = tested on: VZV (varicella zoster virus, strain ELLEN); assay: VZV plaque inhibition assay in WI-38 cells; format: cell-based; conditions: 5-7 days
Protocol: as §4, §5, §6

[9] = tested on: phytopathogenic bacteria and fungi; conditions: Kusaka, et al., J. Antibiotics, (1968); cited from earlier work
[10] = Herdewijn, et al., J. Med. Chem. (1985); cited from earlier work
murine leukemia L1210 = conditions: in vitro; Herdewijn, et al., J. Med. Chem. (1985); cited from earlier work
[11] = Herdewijn, et al., J. Med. Chem. (1985); cited from earlier work; remark: listed apart in the source
[12] = Table III, racemic series, read-out: HSV-1 in vitro antiviral activity (ID50)
[13] = Table III, racemic series, read-out: HSV-2 in vitro antiviral activity (ID50)
[14] = Human betaherpesvirus 5, Table III, racemic series, read-out: HCMV in vitro antiviral activity (ID50)
[15] = Human alphaherpesvirus 3, Table III, racemic series, read-out: VZV in vitro antiviral activity (ID50)

Row | IC50 [1] | IC50 [2] | IC50 [4] | SMILES | IC50 [3] | further results
1 | > 100 µg/mL | > 100 µg/mL | > 100 µg/mL | Nc1nc2c(ncn2C2CC(OCP(=O)(O)O)C(O)C2O)c(=O)[nH]1 (centres unmarked) | 4.5 µg/mL (≈ 12.5 µM) | –
2 | – | 22 µg/mL (≈ 60.6 µM) | – | Nc1nc2c(ncn2C2CC(OCP(=O)(O)O)C(O)C2F)c(=O)[nH]1 (centres unmarked) | 0.36 µg/mL (≈ 0.991 µM) | –
3 | – | > 100 µg/mL | > 100 µg/mL | Nc1ncnc2c1ncn2C1CC(OCP(=O)(O)O)C(O)C1O (centres unmarked) | > 100 µg/mL | –
4 | > 140 µg/mL | > 134 µg/mL | – | Cc1cn(C2C=CC(OCP(=O)(O)O)C2)c(=O)[nH]c1=O (centres unmarked) | – | –
5 | – | – | – | Nc1nc2c(ncn2C2CC(OCP(=O)(O)O)CC2F)c(=O)[nH]1 (centres unmarked) | – | IC50 [5, 12]: 10 to 25 µg/mL (≈ 28.8 to 72 µM); IC50 [6, 13]: 10 to 25 µg/mL (≈ 28.8 to 72 µM); IC50 [7, 14]: 10 to 25 µg/mL (≈ 28.8 to 72 µM); IC50 [8, 15]: 10 to 33 µg/mL (≈ 28.8 to 95 µM)
6 | – | – | – | Nc1ncnc2c1ncn2[C@@H]1C[C@H](CO)[C@@H](O)[C@H]1O [aristeromycin] | – | growth inhibitory activity against phytopathogenic bacteria and fungi [9]: growth inhibitory activity; cytotoxicity [10]: cytotoxic; activity against murine leukemia L1210 (murine leukemia L1210): active; antiviral activity [11]: has antiviral activity
7 | 13.5 µg/mL (≈ 41.3 µM) | > 50 µg/mL | 5.1 µg/mL (≈ 15.6 µM) | Nc1nc2c(ncn2C2C=CC(OCP(=O)(O)O)C2)c(=O)[nH]1 (centres unmarked) [drawing 15] | > 100 µg/mL | –
8 | > 116 µg/mL | > 82 µg/mL | 0.84 µg/mL (≈ 2.7 µM) | Nc1ncnc2c1ncn2C1C=CC(OCP(=O)(O)O)C1 (centres unmarked) [drawing 24] | > 100 µg/mL | –
9 | – | > 100 µg/mL | – | Nc1ncnc2c1ncn2C1CC(OCP(=O)(O)O)C(O)C1F (centres unmarked) [drawing 27] | 85 µg/mL (≈ 245 µM) | –
10 | – | – | – | Nc1nc2c(ncn2C2C=CC(OCP(=O)(O)O)C2)c(=O)[nH]1 (centres unmarked) [drawing 30] | – | IC50 [5, 12]: > 72 µg/mL; IC50 [6, 13]: > 72 µg/mL; IC50 [7, 14]: > 100 µg/mL; IC50 [8, 15]: 12 to 121 µg/mL (≈ 36.7 to 370 µM)
11 | – | – | – | Nc1ncnc2c1ncn2C1C=CC(OCP(=O)(O)O)C1 (centres unmarked) [drawing 33] | – | IC50 [5, 12]: > 100 µg/mL; IC50 [6, 13]: > 100 µg/mL; IC50 [7, 14]: > 100 µg/mL; IC50 [8, 15]: > 100 µg/mL
12 | – | – | – | Nc1ncnc2c1ncn2C1CC(OCP(=O)(O)O)C(O)C1F (centres unmarked) [drawing 67] | – | IC50 ([5]; Table IV, enantiomeric series (1R, 4S), read-out: HSV-1 in vitro antiviral data (ID50)): 10 to 25 µg/mL (≈ 28.8 to 72 µM); IC50 ([6]; Table IV, enantiomeric series (1R, 4S), read-out: HSV-2 in vitro antiviral data (ID50)): 10 to 25 µg/mL (≈ 28.8 to 72 µM); IC50 ([7]; Human betaherpesvirus 5, Table IV, enantiomeric series (1R, 4S), read-out: HCMV in vitro antiviral data (ID50)): > 100 µg/mL; IC50 ([8]; Human alphaherpesvirus 3, Table IV, enantiomeric series (1R, 4S), read-out: VZV in vitro antiviral data (ID50)): 5 to 10 µg/mL (≈ 14.4 to 28.8 µM)
